We go through 4 compounds from ChEMBL document CHEMBL5244233 (Eur J Med Chem, 2020).

Experiment [1] can be described thus: Induction of apoptosis in gamma-irradiation induced human U87 cells by PI staining based flow cytometric analysis. It is filed as functional, U-87MG ATCC. As to conditions: U-87 MG, light or radiation study, read-out: MEC. (In general: A flow cytometer gives signals particle by particle.)
The subject of a further experiment is 4T1. The experiment in a line: Cytotoxicity against mouse 4T1 cells assessed as inhibition of cell proliferation by MTT assay. It counts as functional, cell-based. On the technique in general: Formazan colour is commonly taken as a measure of viable cells.
Another experiment has as its system DU-145. The experiment in a line: Cytotoxicity against human DU-145 cells assessed as inhibition of cell growth incubated for 72 hrs by MTT assay. It is filed as functional, cell-based. As to conditions: DU-145, 72 h.
The subject of a further experiment is Caco-2. The experiment in a line: Cytotoxicity against human Caco-2 cells assessed as reduction of cell viability incubated for 24 hrs by MTT assay. It is filed as functional, cell-based. The conditions noted are these: Caco-2, 24 h.
A short description of experiment [2]: Reduction of triglyceride level in mouse 3T3-L1 cells incubated for 3 days by AdipoRed staining based fluorescence analysis. It counts as functional. The conditions noted are these: 3T3-L1, 72 h, time 3 day, read-out: MEC.
Experiment [3] has as its system Rattus norvegicus. The experiment in a line: Protection against LiCl-induced nausea in ip dosed rat assessed as reduction in conditioned gaping. It counts as functional.
Experiment [4] addresses Cannabinoid receptor 1 (Mus musculus) (UniProt P47746). As to the kind of experiment: Antagonist activity at mouse brain membrane CB1 receptor assessed as stimulation of [35S]-GTPgammaS binding by measuring apparent dissociation constant incubated for 60 mins by liquid scintillation counting method. It counts as cell membranes. The conditions noted are these: filed as antagonist.

The species named for experiment [5] is Rattus norvegicus. As to the kind of experiment: Protection against LiCl-induced nausea in rat assessed as reduction in conditioned gaping. The conditions noted are these: read-out: MED. It is filed as functional.
The test system of another experiment is MDA-MB-231. As to the kind of experiment: Inhibition of cell migration in human MDA-MB-231 cells measured upto 48 hrs by transwell chamber assay. It is filed as functional.
In another experiment the target is Cannabinoid receptor 1 (Rattus norvegicus, UniProt P20272). As to the kind of experiment: Displacement of [3H]HU243 from rat brain membrane CB1 receptor assessed as inhibition constant incubated for 90 mins. It is filed as cell membranes. On the technique in general: Displacement assays read how much labelled ligand stays bound in the presence of the test substance.
Chain of Cannabinoid receptor 1 (P20272 whole entry): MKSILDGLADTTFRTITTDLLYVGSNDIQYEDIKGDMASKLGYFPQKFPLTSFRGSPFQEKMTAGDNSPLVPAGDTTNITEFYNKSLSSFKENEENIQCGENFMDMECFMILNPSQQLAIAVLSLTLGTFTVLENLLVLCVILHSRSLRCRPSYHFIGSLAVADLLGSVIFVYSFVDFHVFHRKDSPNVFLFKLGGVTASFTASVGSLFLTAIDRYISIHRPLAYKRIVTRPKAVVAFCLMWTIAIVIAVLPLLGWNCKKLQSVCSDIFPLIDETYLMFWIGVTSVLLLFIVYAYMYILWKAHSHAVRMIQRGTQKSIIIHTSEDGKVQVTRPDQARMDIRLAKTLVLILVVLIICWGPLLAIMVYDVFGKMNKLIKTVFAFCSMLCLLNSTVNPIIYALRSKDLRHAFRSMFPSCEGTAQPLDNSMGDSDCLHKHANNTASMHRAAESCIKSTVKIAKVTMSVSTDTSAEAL

Bounds are passed on as bounds.

Chain of Cannabinoid receptor 1 (Mus musculus) (P47746 whole entry): as the sequence (P20272 whole entry) above, with E95D counted along it

Broadly, the IC50 is the concentration at which inhibition is half-maximal. As for `C=C(C)[C@@H]1CCC(C)=C[C@H]1c1c(O)cc(CCCCC)cc1O` [CANNABIDIOL], the minimal effective concentration in [1] and in [2] was at most 5 µM each time. The IC50 came out at 1800 nM with 4T1, 5400 nM in the experiment with DU-145 and 3730 nM in the experiment with Caco-2.

Regarding `C=C(C)[C@@H]1CCC(C)=C[C@H]1c1c(O)cc(CCC)cc1O` [CANNABIDIVARIN], in the experiment on Rattus norvegicus [3], the MED was found to be 200000 µg/kg. Also, in the experiment on Caco-2, the IC50 came to 10100 nM.

For orientation: Kb means the affinity of an antagonist, worked out from how it opposes an agonist. Usually MIC stands for the smallest concentration in the dilution series that meets the test's criterion for growth inhibition. Higher therefore signals a less susceptible organism. Consider `C=C(C)[C@@H]1CCC(C)=C[C@H]1c1c(O)cc(CCCCC)c(C(=O)O)c1O` [CANNABIDIOLIC ACID], for which the Kb in [4] was found to be 1800 nM. For the same compound, the minimal effective dose in the experiment filed under Rattus norvegicus [5] was determined as 2.5 µg/kg. Moreover, in the experiment with MDA-MB-231, the MIC is at most 5 µM.

In general, Ki refers to the dissociation constant of the complex between target and ligand, obtained from inhibition or displacement. For the compound `C=C(C)[C@@H]1CCC(C)C[C@H]1c1c(O)cc(CCCCC)cc1O` (stereo partly specified), the inhibitory constant (Ki) on Cannabinoid receptor 1 turned out to be 145 nM.
